Like-named read-outs stand apart in the source and are kept apart here.
Assays:
RCC I–V = test: Activities of RCC I–V, overall statements; type: biochemical, rat; details: submitochondrial particles
Description: KIs were incubated with submitochondrial particles (1 mg/ml) for 15 min and then RCC I–V activities measured. […] The activities of DMSO-treated samples (controls) were set as 1. […] The difference between the activity from rotenone-containing buffer and rotenone-absent buffer was considered as RCC I activity. […] For measuring RCC I/V and II activity, the changes in absorbance at 340 and 600 nm, respectively, were determined every 1 min for 6 min. For measuring RCC III and RCC IV, the changes in absorbance at 550 nm were measured every 10 s for 2 min.

RCC I = RCC I activity in submitochondrial particles; type: biochemical, rat; design: key to RCC I at 10XCmax / RCC I at 100XCmax / RCC I at 50XCmax / RCC I at 30XCmax / RCC I at 20XCmax: activity relative to DMSO-treated controls (control set as 1 = 100%)
Summary of the method: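 Kinase inhibitors were preincubated 15 min with submitochondrial particles (1 mg/ml) before complex activities were measured. RCC I was the rotenone-sensitive portion (activity without minus with rotenone). RCC I/V was read at 340 nm and RCC II at 600 nm every 1 min for 6 min. RCC III and IV were read at 550 nm every 10 s for 2 min. Activities are normalized to DMSO controls set as 1.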

[1] = cited from earlier work
RCC III = RCC III activity in submitochondrial particles; type: biochemical, rat; design: key to RCC III at 100XCmax: activity relative to DMSO-treated controls (control set as 1 = 100%)
Summary of the method: (§1)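 Absorbance kinetics: A340 (RCC I, V) and A600 (RCC II) read each minute over 6 min, A550 (RCC III, IV) every 10 s over 2 min; RCC I taken as […]. Particles (1 mg/ml) pretreated 15 min with compound; DMSO-treated activity = 1.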

RCC IV = RCC IV activity in submitochondrial particles; type: biochemical, rat; design: key to RCC IV at 50XCmax / RCC IV at 100XCmax: activity relative to DMSO-treated controls (control set as 1 = 100%)
Summary of the method: as §1

[2] = tested on: isolated rat liver mitochondria; test: Mitochondrial oxygen consumption (glutamate/malate or succinate driven, state 4 and state 3); type: biochemical; on State 3 respiration driven by succinate at 10XCmax: key: 0 indicates that the drug had no effects (negative); on State 3 respiration driven by succinate at 1XCmax: key: 0 indicates that the drug had no effects (negative)
Summary of the method: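 Oxygen uptake on glutamate/malate or on succinate defined state 4; ADP added 3 min later gave state 3. Mitochondria isolated from rat liver by differential centrifugation, adjusted to 1 mg/ml and pretreated 5 min with inhibitor (0.1% DMSO final). Values relative to DMSO control, set to 1.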

[3] = tested on: isolated rat liver mitochondria; test: Mitochondrial toxicity, any endpoint, intact mitochondria and submitochondrial particles; type: biochemical; details: highest concentrations tested
Description: Rats were anesthetized by an intraperitoneal injection of Nembutal and the liver perfused with PBS to remove the blood. The liver was then cut into small pieces and homogenized using a Dounce type homogenizer in the ice-cold isolation buffer (IB) containing 200 mM sucrose, 10 mM Tris-MOPS, 1 mM EGTA (pH 7.4). The sample was then centrifuged at 600g for 10 min. The supernatant was further centrifuged at 7500g for 10 min, and the pellets was washed once with the IB and centrifuged again at 7500g for 10 min to collect mitochondria. […] Before drug treatment, the protein concentration was adjusted to 1 mg/ml using appropriate buffer. […] Briefly, mitochondrial and cytosolic fractions from four different preparations using four rats were diluted using the Laemmli protein loading buffer and subject to SDS-PAGE with 4–20% gradient gels. The proteins were blotted to PVDF membranes and detected using antibodies against GAPDH, ATP5A, UQCRC2, SDHB, and NDUFB8.
The aliquoted stock solutions were kept for less than one month and each tube was used only once. The KIs were added to the mitochondria at 1:1000 dilutions. […] The Cmax data were from clinical trials which used FDA recommend dosages, route of administration, and duration. […] The final concentration of DMSO for drug treatment was always 0.1%, and control treatments were 0.1% DMSO.

[4] = tested on: isolated rat liver mitochondria; test: Mitochondrial swelling (absorbance at 535 nm); type: biochemical; details: difference in signal between KI and DMSO treated samples at the end of experiments; on Swelling 5XCmax: key: 0 indicates that the drug had no effects (negative)
RCC II = target: T1, RCC II (Rattus norvegicus, UniProt P21913+Q641Z9+Q6PCT8+Q920L2); test: RCC II activity in submitochondrial particles; type: biochemical; design: key: activity relative to DMSO-treated controls (control set as 1 = 100%); details: DMSO treated samples set as 1
T1 construct: Submitochondrial particles were prepared by subjecting the intact mitochondria to three successive freeze–thaw cycles; from tissue; host or cells: rat liver mitochondria, used as submitochondrial particles
Summary of the method: as §1

[5] = tested on: isolated rat liver mitochondria; details: positive control alamethicin treated samples
[6] = tested on: isolated rat liver mitochondria; test: Mitochondrial inner membrane potential (MMP), Rhodamine 123; type: biochemical; details: difference in signal between KI and DMSO treated samples at the end of experiments
Description: Fig. 3 KI effects on mitochondrial inner membrane potential (MMP). […] In a, c, data are means and standard derivations from three separate experiments. *p < 0.05 as compared to DMSO-treated samples at the end of experiments. In b, data are means of two independent experiments

RCC V = RCC V activity in submitochondrial particles; type: biochemical, rat; details: DMSO treated samples set as 1; on RCC V at 5XCmax: key: 0 indicates that the drug had no effects (negative)
Summary of the method: as §1

[7] = tested on: isolated rat liver mitochondria; test: Mitochondrial ROS production (CM-H2DCFDA); details: DMSO treated samples set as 1
[8] = in vivo; cited from earlier work
[9] = ref product labeling, cited from earlier work
[10] = 1-fold Cmax, 15 min, DMSO-treated = 100
[11] = 10XCmax, DMSO treated samples set as 1
[12] = 1XCmax, DMSO treated samples set as 1
[13] = 2.5XCmax, DMSO treated samples set as 1
[14] = 5XCmax, DMSO treated samples set as 1
[15] = 20XCmax, DMSO treated samples set as 1
[16] = 30XCmax, DMSO treated samples set as 1
[17] = 50XCmax, DMSO treated samples set as 1
[18] = 100XCmax, DMSO treated samples set as 1

T1 sequence (Q920L2 35-656): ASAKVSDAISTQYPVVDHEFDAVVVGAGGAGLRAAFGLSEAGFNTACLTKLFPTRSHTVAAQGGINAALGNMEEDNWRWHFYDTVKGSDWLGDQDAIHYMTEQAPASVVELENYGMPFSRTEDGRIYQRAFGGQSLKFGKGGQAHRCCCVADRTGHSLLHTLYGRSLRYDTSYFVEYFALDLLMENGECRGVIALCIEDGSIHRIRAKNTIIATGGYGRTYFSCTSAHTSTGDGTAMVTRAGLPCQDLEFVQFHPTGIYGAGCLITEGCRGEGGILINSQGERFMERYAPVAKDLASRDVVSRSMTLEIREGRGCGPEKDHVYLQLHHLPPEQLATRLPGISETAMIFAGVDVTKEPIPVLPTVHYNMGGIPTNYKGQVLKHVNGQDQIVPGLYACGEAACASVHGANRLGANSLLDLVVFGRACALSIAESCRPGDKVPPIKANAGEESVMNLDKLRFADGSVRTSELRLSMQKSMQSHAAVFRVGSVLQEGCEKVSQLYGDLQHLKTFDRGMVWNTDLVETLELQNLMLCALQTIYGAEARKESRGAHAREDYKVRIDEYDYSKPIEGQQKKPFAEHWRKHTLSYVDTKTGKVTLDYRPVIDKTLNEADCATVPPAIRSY
T1 sequence (P21913 31-282): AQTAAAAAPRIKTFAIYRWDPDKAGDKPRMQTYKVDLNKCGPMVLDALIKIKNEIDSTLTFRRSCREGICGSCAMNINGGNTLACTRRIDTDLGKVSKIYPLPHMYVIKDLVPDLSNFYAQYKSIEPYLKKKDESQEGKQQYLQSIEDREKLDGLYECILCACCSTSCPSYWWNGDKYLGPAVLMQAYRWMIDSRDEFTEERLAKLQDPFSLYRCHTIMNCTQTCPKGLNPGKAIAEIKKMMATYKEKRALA
T1 sequence (Q641Z9 1-169): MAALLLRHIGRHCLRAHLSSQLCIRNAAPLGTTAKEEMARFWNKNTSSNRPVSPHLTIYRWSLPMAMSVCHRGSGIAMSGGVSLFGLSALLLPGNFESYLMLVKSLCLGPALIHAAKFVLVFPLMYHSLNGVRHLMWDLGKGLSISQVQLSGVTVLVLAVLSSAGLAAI
T1 sequence (Q6PCT8 57-159): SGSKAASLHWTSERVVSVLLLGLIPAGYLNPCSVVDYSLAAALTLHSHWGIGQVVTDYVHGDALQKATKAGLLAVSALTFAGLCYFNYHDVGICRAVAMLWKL

SMILES: Cc1ccc(Nc2nccc(N(C)c3ccc4c(C)n(C)nc4c3)n2)cc1S(N)(=O)=O [Pazopanib]
- lowest concentration inhibiting RCCs (RCC I–V): equal to Cmax
- RCCs inhibited (RCC I–V; up to 100-fold Cmax or highest testable concentration): inhibitor of RCC I but not other RCCs
- RCC activity I (RCC I; [10]): 83.77 ± 2.98 % of control
- Cmax ([1]; human therapeutic Cmax at FDA recommended dosages, ref product labeling and drug approval packages at the official FDA website): 133 µM
- Cmax ([1]; human therapeutic Cmax at FDA recommended dosages, ref product labeling and drug approval packages at the official FDA website, listed as pazopanib): 133 µM
- RCC activity III (RCC III; [10]): 96.90 ± 11.69 % of control
- RCC activity IV (RCC IV; [10]): 102.68 ± 0.57 % of control
- inhibition of state 3 mitochondrial respiration driven by glutamate/malate ([2]; onefold Cmax): over 50%

SMILES: Cc1ccc(C(=O)Nc2ccc(CN3CCN(C)CC3)c(C(F)(F)F)c2)cc1C#Cc1cnc2cccnn12 [Ponatinib]
- effects on intact mitochondria or submitochondrial particles [3]: no effects
- Swelling 1XCmax ([4]; 1XCmax): 0
- Swelling 2.5XCmax ([4]; 2.5XCmax): 0
- Swelling 5XCmax ([4]; 5XCmax): 0
- Swelling 10XCmax ([4]; 10XCmax): 0
- Swelling 20XCmax ([4]; 20XCmax): 0
- Swelling 30XCmax ([4]; 30XCmax): 0
- Swelling 50XCmax ([4]; 50XCmax): 0
- Swelling 100XCmax ([4]; 100XCmax): 0
- RCC I at 10XCmax (RCC I; [11]): 0
- RCC II at 1.0XCmax (RCC II; 1.0XCmax): 0
- RCC II at 2.5XCmax (RCC II; 2.5XCmax): 0
- RCC II at 5XCmax (RCC II; 5XCmax): 0
- RCC II at 10XCmax (RCC II; 10XCmax): 0
- RCC II at 20XCmax (RCC II; 20XCmax): 0
- RCC II at 30XCmax (RCC II; 30XCmax): 0
- RCC II at 50XCmax (RCC II; 50XCmax): 0
- RCC II at 100XCmax (RCC II; 100XCmax): 0
- Cytochrome c release 1XCmax ([5]; 1XCmax): 0
- Cytochrome c release 2.5XCmax ([5]; 2.5XCmax): 0
- Cytochrome c release 5XCmax ([5]; 5XCmax): 0
- Cytochrome c release 10XCmax ([5]; 10XCmax): 0
- Cytochrome c release 20XCmax ([5]; 20XCmax): 0
- Cytochrome c release 30XCmax ([5]; 30XCmax): 0
- Cytochrome c release 50XCmax ([5]; 50XCmax): 0
- Cytochrome c release 100XCmax ([5]; 100XCmax): 0
- MMP measured by Rhodamine 123 at 1XCmax ([6]; 1XCmax): 0
- MMP measured by Rhodamine 123 at 2.5XCmax ([6]; 2.5XCmax): 0
- MMP measured by Rhodamine 123 at 5XCmax ([6]; 5XCmax): 0
- MMP measured by Rhodamine 123 at 10XCmax ([6]; 10XCmax): 0
- MMP measured by Rhodamine 123 at 20XCmax ([6]; 20XCmax): 0
- MMP measured by Rhodamine 123 at 30XCmax ([6]; 30XCmax): 0
- MMP measured by Rhodamine 123 at 50XCmax ([6]; 50XCmax): 0
- MMP measured by Rhodamine 123 at 100XCmax ([6]; 100XCmax): 0
- Cmax (ng or µg/ml) ([1]; human therapeutic maximal blood concentration, ref product labeling): 0.073 µg/mL
- Cmax ([1]; read-out: Cmax at µM, human therapeutic maximal blood concentration, ref product labeling): 0.14 µM
- RCC III at 100XCmax (RCC III; 100XCmax): 0
- RCC V at 5XCmax (RCC V; 5XCmax): 0
- RCC V at 50XCmax (RCC V; 50XCmax): 0
- RCC IV at 50XCmax (RCC IV; 50XCmax, DMSO treated samples set as 1, in %): 0
- State 3 respiration driven by succinate at 1XCmax [2, 12]: 0
- State 4 respiration driven by succinate at 1XCmax [2, 12]: 0
- State 3 respiration driven by succinate at 2.5XCmax [2, 13]: 0
- State 4 respiration driven by succinate at 2.5XCmax [2, 13]: 0
- State 3 respiration driven by succinate at 5XCmax [2, 14]: 0
- State 4 respiration driven by succinate at 5XCmax [2, 14]: 0
- State 3 respiration driven by succinate at 10XCmax [2, 11]: 0
- State 4 respiration driven by succinate at 10XCmax [2, 11]: 0
- State 3 respiration driven by succinate at 20XCmax [2, 15]: 0
- State 4 respiration driven by succinate at 20XCmax [2, 15]: 0
- State 3 respiration driven by succinate at 30XCmax [2, 16]: 0
- State 4 respiration driven by succinate at 30XCmax [2, 16]: 0
- State 3 respiration driven by succinate at 50XCmax [2, 17]: 0
- State 4 respiration driven by succinate at 50XCmax [2, 17]: 0
- State 3 respiration driven by succinate at 100XCmax [2, 18]: 0
- State 4 respiration driven by succinate at 100XCmax [2, 18]: 0
- ROS measured by CM-H2DCFDA at 1XCmax ([7]; 1XCmax): 0
- ROS measured by CM-H2DCFDA at 2.5XCmax ([7]; 2.5XCmax): 0
- ROS measured by CM-H2DCFDA at 5XCmax ([7]; 5XCmax): 0
- ROS measured by CM-H2DCFDA at 10XCmax ([7]; 10XCmax): 0
- ROS measured by CM-H2DCFDA at 20XCmax ([7]; 20XCmax): 0
- ROS measured by CM-H2DCFDA at 30XCmax ([7]; 30XCmax): 0
- ROS measured by CM-H2DCFDA at 50XCmax ([7]; 50XCmax): 0
- ROS measured by CM-H2DCFDA at 100XCmax ([7]; 100XCmax): 0
- DILI potential (based on labeling) [8]: 1
- Labeling for DILI [8]: BBW: fatal DILI
- labeling for DILI [8]: BBW: fatal DILI
- Labeling for cardiotoxicity ([9]; BBW: black box warning, W&P: Warnings and Precautions): BBW: Heart Failure
- Potential for cardiotoxicity (based on labeling) [9]: 1

— publication PMC5515969, “Effects of 31 FDA approved small-molecule kinase inhibitors on isolated rat liver mitochondria” (Archives of Toxicology, 2016)
